Results: ChEMBL document CHEMBL1159223, “4-Dehydroecdysterone, a new ecdysteroid from the zoanthid Parazoanthus sp” (J Nat Prod, 1995)
The source made the active and inactive calls. No cut-off for these calls is given here.

System: Candida albicans
Test: Antifungal activity against Candida albicans
Assay type: functional, organism-based

Row | Compound | Activity
1 | CC(C)(O)CC[C@@H](O)[C@](C)(O)[C@H]1CC[C@@]2(O)C3=CC(=O)[C@@H]4C[C@@H](O)[C@@H](O)C[C@]4(C)[C@H]3CC[C@]12C | inactive
2 | CC(C)CC[C@H](O)[C@](C)(O)[C@H]1CC[C@@]2(O)C3=CC(=O)[C@@H]4C[C@@H](O)[C@@H](O)C[C@]4(C)[C@H]3[C@H](O)C[C@]12C | inactive
3 | CNc1nc2c(C)ccc3nc(N(C)C)[nH]c3c-2n1 | inactive
4 | CC(C)(O)CC[C@H](O)[C@](C)(O)[C@H]1CC[C@@]2(O)C3=CC(=O)C4=C[C@@H](O)[C@@H](O)C[C@]4(C)[C@H]3CC[C@]12C | inactive
